Measurements taken from PMC10304876 (Molecules, 2023).
Entries after “also recorded” stand apart in the source; their conditions may differ.

How the values were obtained:
rodent = test system: rodent; parameters: method as in PMID 17625813; conditions: rodent antinociceptive assays; cited from earlier work
[1] = target: T1, human µ-opioid receptor β-arrestin2 (Homo sapiens, UniProt P35372); assay: cell-based; conditions: for Emax: read-out: MOR β-Arrestin Recruitment %Emax ± SEM
T1 construct: EFC (enzyme fragment complementation) fragment; host or cells: PathHunter CHO-K1

[2] = target: T2, human δ-opioid receptor (OPRD1) (Homo sapiens, UniProt P41143); assay: Forskolin-induced cAMP accumulation assay, DOR agonist; conditions: for Emax: read-out: DOR Agonist %Emax ± SEM, cAMP assay
[3] = test system: squirrel monkeys (Saimiri sciureus); assay: Squirrel monkey ventilation (whole-body plethysmograph, air vs 5% CO2); type: in vivo; conditions: for respiratory depressant effects (ventilatory ratio: minute volumes in 5% CO2 vs room air): cumulative dosing, result in words
Procedure: These experiments were approved under IACUC protocol #2015N000165.
Ventilation measures were assessed as described previously. Briefly, squirrel monkeys were acclimated to a customized acrylic chamber (10′′d × 10′′w × 10′′h) that served as a whole-body plethysmograph (EMKA Technologies, Montreal, PQ, Canada). Gas (either air or a 5% CO2 in air mixture) was introduced to and extracted from the chamber at a constant flow rate of 5 L/min. Experimental sessions consisted of 4–6 consecutive 30 min cycles, each comprising a 20 min exposure to air followed by a 10 min exposure to 5% CO2. Drug effects were determined using cumulative dosing procedures, and injections were administered following each exposure to 5% CO2. Respiratory rate and tidal volume (mL/breath) were recorded over 1 min periods and were multiplied to provide minute volumes. Data from the last three minutes of each exposure to air or CO2 were averaged and used for analysis of drug effects on ventilation.
(§1) All statistical analyses and graphic representations were completed with GraphPad Prism version 9.3.0 (GraphPad Software, San Diego, CA, USA) using log-transformed values of doses. Group means ± SEM tail withdrawal latencies (in sec) and minute volume ratios are plotted as a function of drug dose. Data were analyzed using one-way ANOVA with significance set at p < 0.05, followed by Dunnett’s multiple comparison test.

[4] = target: T2, human δ-opioid receptor (OPRD1); assay: Forskolin-induced cAMP accumulation assay, DOR antagonist; conditions: for DOR Antagonist %Imax ± SEM: Imax normalized to naltrexone
[5] = test system: squirrel monkeys (Saimiri sciureus); assay: Warm-water tail withdrawal in squirrel monkeys; type: in vivo; conditions: 52 °C water, cumulative dosing, n = 3 to 5
Procedure: Male squirrel monkeys (Saimiri sciureus) were housed in a climate-controlled vivarium with a 12 h light/dark cycle (7 a.m.–7 p.m.) in the McLean Hospital Animal Care Facility (licensed by the U.S. Department of Agriculture and compliant with guidelines provided by the Committee on Care and Use of Laboratory Animals of the Institute of Laboratory Animals Resources, Commission on Life Sciences, National Research Council; 2011). These experiments were approved under IACUC protocol #2015N000165.
Tail withdrawal latencies were assessed as described previously. Briefly, monkeys were seated in customized Plexiglas chairs that allowed their tails to hang freely. Tail withdrawal latencies were measured by immersing the subject’s tail in water held at 35 °C or 52 °C (temperatures were presented in a randomized order during successive test components). After obtaining a baseline tail withdrawal latency, complete dose response curves were generated in each subject using standard cumulative dosing procedures. Briefly, every 15 min after an injection, tail withdrawal latencies at each temperature were redetermined and subjects were injected with the next dose, such that the total (cumulative) dose was increased by ½ log10 units in each successive cycle. This procedure was repeated until either (a) the tail withdrawal latency from 52 °C water reached the maximum allowable latency (10 s), or (b) tail withdrawal latency no longer increased with increases in dose of the test drug.
as §1

[6] = normalized to the forskolin control

T2 sequence (P41143 whole entry): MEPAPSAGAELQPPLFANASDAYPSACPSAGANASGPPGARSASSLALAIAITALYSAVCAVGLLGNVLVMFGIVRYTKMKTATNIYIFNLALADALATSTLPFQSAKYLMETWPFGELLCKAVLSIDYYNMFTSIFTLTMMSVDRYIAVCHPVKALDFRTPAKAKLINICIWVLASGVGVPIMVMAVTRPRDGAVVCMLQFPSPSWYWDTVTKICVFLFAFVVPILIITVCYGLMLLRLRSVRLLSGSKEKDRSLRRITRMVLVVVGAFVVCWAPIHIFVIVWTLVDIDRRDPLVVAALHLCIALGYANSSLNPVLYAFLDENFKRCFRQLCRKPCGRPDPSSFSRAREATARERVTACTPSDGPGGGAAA
T1 sequence (P35372 whole entry, the tested form may be a part): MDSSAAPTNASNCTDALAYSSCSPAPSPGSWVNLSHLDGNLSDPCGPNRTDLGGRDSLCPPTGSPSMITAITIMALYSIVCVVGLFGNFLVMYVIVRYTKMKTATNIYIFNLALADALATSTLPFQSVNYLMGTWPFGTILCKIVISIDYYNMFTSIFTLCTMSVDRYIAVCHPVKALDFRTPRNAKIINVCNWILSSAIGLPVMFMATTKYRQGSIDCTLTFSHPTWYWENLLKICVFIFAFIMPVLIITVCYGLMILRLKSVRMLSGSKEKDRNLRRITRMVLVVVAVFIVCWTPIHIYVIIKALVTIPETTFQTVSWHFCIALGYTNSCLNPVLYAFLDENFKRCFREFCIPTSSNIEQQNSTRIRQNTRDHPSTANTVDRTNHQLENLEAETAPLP

Question: For `Oc1cccc([C@]23CCC[C@H]([C@H]2O)N(CCc2ccccc2)CC3)c1` [Compound 2], which “times more potent than morphine” value (rodent) is on record?
Answer: ~500 times

Question: Which results are given for `OC[C@H]1[C@H]2CCC[C@]1(c1cccc(O)c1)CCN2CCc1ccccc1` [Compound 11, 3-((1R,5S,9R)-9-(Hydroxymethyl)-2-phenethyl-2-azabicyclo[3.3.1]nonan-5-yl)phenol]?
Answer: Bias Factor [1]: 13.4; EC50 [1]: 187 nM; Emax [1]: 2.7%; EC50 [2]: 8.5 ± 3.5 nM; Emax [2, 6]: 35%

Question: With `OC[C@H]1[C@@H]2CCC[C@@]1(c1cccc(O)c1)CCN2CCc1ccccc1` [Compound 15, 3-((1S,5R,9R)-9-(Hydroxymethyl)-2-phenethyl-2-azabicyclo[3.3.1]nonan-5-yl)phenol] as the compound, how does the “respiratory depressant effects (ventilatory ratio: minute volumes in 5% CO2 vs room air)” value [3] read?
Answer: limited respiratory depressant effects

Question: What about the EC50 [1] of the same compound?
Answer: > 50000 nM

Question: What about the Emax [1] of the same compound?
Answer: 0%

Question: What about the IC50 [4] of the same compound?
Answer: 336 ± 139 nM

Question: What about the “DOR Antagonist %Imax ± SEM” value ([4]; cAMP assay) of the same compound?
Answer: 109 ± 8%

Question: What about the EC50 [2] of the same compound?
Answer: 0.6 ± 0.3 nM

Question: And the Emax [2, 6]?
Answer: 17%

Question: What about the “antinociceptive effects (tail withdrawal latency)” value (“antinociceptive effects” below) [5] of the same compound?
Answer: did not significantly increase tail withdrawal latency

Question: Which “respiratory depressant effects (ventilatory ratio: minute volumes in 5% CO2 vs room air)” value [3] does the source give for `OCC[C@H]1[C@@H]2CCC[C@@]1(c1cccc(O)c1)CCN2CCc1ccccc1` [Compound 21, 3-((1S,5R,9R)-9-(2-Hydroxyethyl)-2-phenethyl-2-azabicyclo[3.3.1]nonan-5-yl)phenol] here?
Answer: reduced the ability of 5% CO2 to stimulate increases in ventilation

Question: What about the “ventilatory ratio reached with increasing dose” value ([3]; ratio of minute volumes in 5% CO2 and room air) of the same compound?
Answer: above 2

Question: What about the EC50 [1] of the same compound?
Answer: > 50000 nM

Question: What about the Emax [1] of the same compound?
Answer: 0%

Question: What about the EC50 [2] of the same compound?
Answer: 13 ± 3 nM

Question: What about the “DOR Agonist %Emax ± SEM” value ([2]; cAMP assay, normalized to the forskolin control) of the same compound?
Answer: 39 ± 3%

Question: What about the Emax [2, 6] of the same compound?
Answer: 38%

Question: And the “antinociceptive effects” value [5]?
Answer: significantly increased tail withdrawal latency; also recorded: full antinociceptive effects in three of four subjects

Question: Which “Bias Factor” value [1] does the source give for `OCCC[C@H]1[C@H]2CCC[C@]1(c1cccc(O)c1)CCN2CCc1ccccc1` [Compound 34, 3-((1R,5S,9R)-9-(3-Hydroxypropyl)-2-phenethyl-2-azabicyclo[3.3.1]nonan-5-yl)phenol] here?
Answer: 14.0

Question: What about the EC50 [1] of the same compound?
Answer: 34 nM

Question: What about the Emax [1] of the same compound?
Answer: 3.1%

Question: And the IC50 [4]?
Answer: 41 ± 5 nM

Question: And the “DOR Antagonist %Imax ± SEM” value ([4]; cAMP assay)?
Answer: 111 ± 4%

Question: And the “DOR Antagonist IC50 ± SEM (nM)” value ([4]; cAMP assay, versus EC50 of SNC80)?
Answer: weak DOR antagonist activity

Question: And the EC50 [2]?
Answer: > 10000 nM

Question: And the “DOR Agonist EC50 ± SEM (nM)” value ([2]; inhibition of forskolin-induced cAMP accumulation, CHO-K1 cells)?
Answer: no DOR agonist activity

Question: For `OCCC[C@H]1[C@@H]2CCC[C@@]1(c1cccc(O)c1)CCN2CCc1ccccc1` [Compound 36], which “respiratory depressant effects (ventilatory ratio: minute volumes in 5% CO2 vs room air)” value [3] is on record?
Answer: limited respiratory depressant effects

Question: What about the EC50 [1] of the same compound?
Answer: > 50000 nM

Question: And the Emax [1]?
Answer: 0%

Question: What about the EC50 [2] of the same compound?
Answer: 102 ± 16 nM

Question: What about the Emax [2, 6] of the same compound?
Answer: 41%

Question: And the “antinociceptive effects” value [5]?
Answer: did not significantly increase tail withdrawal latency

Question: With `COC[C@H]1[C@H]2CCC[C@]1(c1cccc(O)c1)CCN2CCc1ccccc1` [Compound 41, 3-((1R,5S,9R)-9-(Methoxymethyl)-2-phenethyl-2-azabicyclo[3.3.1]nonan-5-yl)phenol] as the compound, how does the “Bias Factor” value [1] read?
Answer: 6.4

Question: What about the EC50 [1] of the same compound?
Answer: 29 nM

Question: And the Emax [1]?
Answer: 2.8%

Question: What about the IC50 [4] of the same compound?
Answer: 54 ± 14 nM

Question: What about the “DOR Antagonist %Imax ± SEM” value ([4]; cAMP assay) of the same compound?
Answer: 80 ± 8%

Question: What about the EC50 [2] of the same compound?
Answer: 2.4 ± 1.6 nM

Question: And the Emax [2, 6]?
Answer: 20%

Question: For `CN1CC[C@]23c4c5ccc(O)c4O[C@H]2[C@@H](O)C=C[C@H]3[C@H]1C5` [Morphine, reference compound], which “antinociceptive effects” value [5] is on record?
Answer: significantly increased tail withdrawal latency
